The values below come from PMC7322544, “Combining an in silico proarrhythmic risk assay with a tPKPD model to predict QTc interval prolongation in the anesthetized guinea pig assay” (Toxicology and Applied Pharmacology, 2020).

The subject of this data set is QTc interval. In words: Anesthetized cardiovascular guinea pig (CVGP) assay. Format: in vivo. Here is the method: Briefly, male Hartley guinea pigs (BW: 350–500 g) were anesthetized with a bolus mixture of ketamine/xylazine (85/5 mg kg^− 1, IM) then an intravenous (iv) infusion of ketamine/xylazine (40/0.5 mg kg^− 1 h^− 1, to effect). The jugular vein and left carotid arteries were cannulated for test article administration and arterial blood pressure (BP) monitoring and blood collection, respectively. The body surface electrocardiogram (ECG) was measured via subcutaneous needle electrodes to record modified lead-II ECG. After surgery, anesthetized GPs were stabilized for a minimum of 10 min before beginning baseline data collection. Solutions of 3 varying test-article concentrations suitable for administering selected doses were prepared in appropriate vehicles. Vehicle alone or test-article solutions were administered i.v. with each dose level infused over a 20-min period. Each test article and vehicle were evaluated in ≥ n = 3 male anesthetized GPs. Blood sampling for pharmacokinetic analysis was taken at 10 and 19 min of each dose level.

As to `COc1c(N2C[C@@H]3CCCN[C@@H]3C2)c(F)cc2c(=O)c(C(=O)O)cn(C3CC3)c12` [NCE 7, moxifloxacin], the “CVGP QTc EC5” value stood at 12 µM (anesthetized guinea pig, free plasma concentration causing 5% increase in QTc interval, > = highest free plasma concentration tested without QTc prolongation) and 15 µM (free plasma concentration). Also, the “Guinea pig QTc EC5” value (free plasma concentration giving 5% QTc increase, > = above highest free plasma concentration tested, no QTc prolongation, i.v. infusion) stood at 15 µM.
